# pKi: −log10 of the molar value. Read-outs that look alike come from different tables or passages of the source.
# Legend:
# [1] = biological target: T1, C1b domain of human PKCδ (Homo sapiens, UniProt Q05655); test: Competitive 3H-PDBu binding to C1b domain of PKCδ; conditions: 3H-PDBu competition
# T1 construct: Genes encoding C1b domains of human PKCα, δ, ε, θ, and PKD1 (PKCμ) were synthesized; made in house; host or cells: E. coli BL21(DE3)
# Summary of the method: (§1)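 Ki derived by Cheng-Prusoff from IC50, with each protein batch's measured ^3H-PDBu Kd. Displacement of ^3H-PDBu from E. coli-produced GST-fused C1b domains or full-length human PKC was run 10 min at 37°C plus 20 min on ice, with filter capture and scintillation counting.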
# [2] = biological target: T2, C1b domain of human PKCα (Homo sapiens, UniProt P17252); test: biochemical; type: binding; conditions: 3H-PDBu competition
# T2 construct: Genes encoding C1b domains of human PKCα, δ, ε, θ, and PKD1 (PKCμ) were synthesized; made in house; host or cells: E. coli BL21(DE3)
# Summary of the method: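 Competitive binding against 3H-PDBu tracer used recombinant GST-C1b fusion protein expressed in E. coli. Incubation ran 10 min at 37°C with shaking, then 20 min on ice, followed by filtration and scintillation counting of trapped 3H-PDBu. Affinity was derived using each protein preparation's experimentally determined Kd for 3H-PDBu.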
# [3] = biological target: T3, C1b domain of human PKD1 (PKCμ) (Homo sapiens, UniProt Q15139); test: biochemical; type: binding
# T3 construct: Genes encoding C1b domains of human PKCα, δ, ε, θ, and PKD1 (PKCμ) were synthesized; made in house; host or cells: E. coli BL21(DE3)
# T3 sequence (Q15139 270-320 limits assumed): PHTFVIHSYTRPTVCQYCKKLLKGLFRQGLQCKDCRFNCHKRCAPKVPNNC
# Summary of the method: as §1
# [4] = tested on: phosphorylation of PKCμ, PKCδ and Erk1/2 in A549 lung cancer cells; type: cell-based; conditions: 3 μM, 30 minutes, Western blot
# Procedure: Cells were then treated with different drugs at indicated concentrations for 30 minutes. […] Imagequant LAS4000 (GE) was used to scan membranes if secondary antibodies anti-mouse IgG HRP conjugate or anti-rabbit IgG HRP conjugate (dilutions from 1:2000-1:10000) were used. For ProteinSimple Wes system, manufacture's procedure was followed (ProteinSimple 12-230 kDa Wes Separation Module) for sample preparation, loading, running, and data analysis.
# Phosphorylation of these sites has been linked to acute activation or catalytic activity of the PKC isoforms and Erk1/2. High level of phosphorylation indicates strong activation.
# [5] = tested on: A549 non-small cell lung cancer cell line; test: Proliferation of A549 (CellTiter Glo); type: cell-based; conditions: read-out: IC50 μM (A549 Cell Line)
# Summary of the method: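 Luminescent CellTiter Glo read-out after 96 h compound exposure of A549 cells plated at 1,000/well and rested 24 h at 37° C; DMSO kept ≤0.25%, dilutions 3-fold. Inhibition taken relative to DMSO-treated wells; IC50, relative IC50 and top inhibition derived by curve fitting.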
# [6] = biological target: T4, C1b domain of human PKCθ (Homo sapiens, UniProt Q04759); test: Competitive 3H-PDBu binding to C1b domain of PKCθ
# T4 construct: Genes encoding C1b domains of human PKCα, δ, ε, θ, and PKD1 (PKCμ) were synthesized; made in house; host or cells: E. coli BL21(DE3)
# T4 sequence (Q04759 231-281 limits assumed): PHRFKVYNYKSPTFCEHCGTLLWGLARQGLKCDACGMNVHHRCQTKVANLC
# Procedure: (§2) Compounds described in this disclosure were tested for binding affinity to C1b domain of PKC isoforms. Compound binding affinity to C1b domain of PKC isoforms was derived from competitive binding assay using radioactive tracer ^3H-PDBu and recombinant GST-C1b or full-length of human PKC proteins based on modified procedures from Methods in Molecular Biology, vol.
# (§3) Genes encoding C1b domains of human PKCα, δ, ε, θ, and PKD1 (PKCμ) were synthesized and inserted into pGEX-2TK or pGEX-4T1 vectors for expression and production of GST-C1b proteins in E. coli BL21(DE3) via IPTG induction. The target proteins were purified by glutathione sepharose 4B and followed by ion exchange chromatography if needed to achieve purity >70%. Aliquots of the purified proteins were stored at −80 degree for binding assay (storage buffer: 20 mM Tris pH 8.0, 200 mM NaCl, 10% glycerol, 1 mM DTT).
# (§4) The plate was incubated at 37° C. on a shaker at 300 rpm for 10 minutes and then put on ice for 20 minutes. […] The bottom of the filter plate was sealed and 50 μL of MicroScint-20 (PerkinElmer) cocktail was added to each well. ^3H-PDBu trapped in each well was counted using PerkinElmer MicroBeta2 Reader. Data were analyzed using GraphPad Prism5 with the model “log(inhibitor) vs. response-variable slope” to fit the IC50, and then IC50 was transformed to Ki using Cheng-Prusoff equation: Ki=IC50/(1+added radio ligand/Kd). Kd is the binding affinity of each protein preparation to ^3H-PDBu, determined experimentally.
# [7] = biological target: T5, C1b domain of human PKCε (Homo sapiens, UniProt Q02156); test: Competitive 3H-PDBu binding to C1b domain of PKCε
# T5 construct: Genes encoding C1b domains of human PKCα, δ, ε, θ, and PKD1 (PKCμ) were synthesized; made in house; host or cells: E. coli BL21(DE3)
# Procedure: as §2, §3, §4
# [8] = tested on: Panc2.13 (Pancreatic) cell line; test: Proliferation of Panc2.13; type: cell-based; conditions: for IC50: read-out: IC50 in μM Panc2.13 (Pancreatic); for ratio of (IC50 of K01)/(IC50 of compound), Panc2.13: value in parenthesis
# Procedure: (§5) The diterpenoid compounds were tested in A549, a non-small cell lung cancer cell line harboring a K-Ras activating mutation. Briefly, A549 cells at a density of 1,000 cells/well were seeded in 96-well plates and incubated at 37° C. for 24 hours. A series of different concentrations of compound stocks (500×) were prepared by 3-fold serial dilution in DMSO. These compounds were further diluted in culture media and then added to cells so that the final DMSO concentration was not exceeding 0.25%. After 96 hours of incubation, 50 μL of CellTiter Glo reagent (Promega) was added to each well and luminescence was measured after 10 minutes using EnVision (PerkinElmer). Luminescence from cells treated with DMSO alone was set as Max and % of inhibition was calculated as follows: Inhibition %=(Max−Sample value)/Max×100. Data was analyzed using XL-fit software (ID Business Solutions Ltd.) and IC50, relative IC50, and % of top inhibition was calculated. Some of the compounds in this disclosure were very potent in blocking proliferation of A549 lung cancer cells at low nM range. In addition, potency of inhibiting A549 proliferation correlated well with its binding affinity to PKCs for this series of compounds. In other words, higher affinity binders had stronger inhibitory effects on A549 proliferation. This further support the notion that activation, rather than inhibition, of certain PKC isoforms is required to block proliferation of cancer cells, some of which may harbor K-Ras mutations. This is in sharp contrast to previous literature and common belief that inhibition of PKC is necessary to block cancer cell growth (Kang, 2014, New Journal of Science, 2014:1-36). Data presented here is in agreement with recent findings that many loss-of-function but not gain-of-function mutations of PKC isoforms have been identified in many human cancers (Antal et al., 2015, Cell, 160:489-502).
# (§6) The compounds in this disclosure were tested for their potency in blocking proliferation of a few other cancer cells lines, including K-Ras mutant pancreatic cell lines Panc2.13 and KP-4, leukemia cell line HL-60, and lymphoma cell lines Namalwa and Mino. Similar procedures as in Example 67 were followed. Initial cell numbers seeded in 96-well plates were different for different cell lines: 3000 cells/well for Panc2.13; 800-1000 cells/well for KP-4; 5000 cells/well for HL-60; 5000-10000 cells/well for Namalwa and Mino. A ratio ratio of (IC50 of K01)/(IC50 of compound) (data in parenthesis in Table 5) was used to normalize the compound potency from different assay batches to a common comparator […].
# [9] = tested on: KP-4 (Pancreatic) cell line; test: Proliferation of KP-4; type: cell-based
# Procedure: as §5, §6
# [10] = tested on: HL-60 (Leukemia) cell line; test: Proliferation of HL-60; type: cell-based; conditions: for ratio of (IC50 of K01)/(IC50 of compound), HL-60: value in parenthesis
# Procedure: as §5, §6
# [11] = tested on: Namalwa (Lymphoma) cell line; test: Proliferation of Namalwa; type: cell-based; conditions: for IC50: read-out: IC50 in μM Namalwa (Lymphoma); for ratio of (IC50 of K01)/(IC50 of compound), Namalwa: value in parenthesis
# Procedure: as §5, §6
# [12] = tested on: Mino (Lymphoma) cell line; test: Proliferation of Mino; type: cell-based; conditions: for IC50: read-out: IC50 in μM Mino (Lymphoma); for ratio of (IC50 of K01)/(IC50 of compound), Mino: value in parenthesis
# Procedure: as §5, §6
# T1 sequence (Q05655 230-280 limits assumed): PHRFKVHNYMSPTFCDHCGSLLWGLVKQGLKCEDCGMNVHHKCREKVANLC
# T5 sequence (Q02156 242-292 limits assumed): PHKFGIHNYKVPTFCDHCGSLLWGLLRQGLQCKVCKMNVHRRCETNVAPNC
SMILES,pKi ([1]; Ki PKCδ),pKi ([2]; Ki PKCα),pKi [3],"phosphorylation of PKC (PKD/PKCμ), PKCδ and Erk1/2 [4]","IC50 ([5]; Homo sapiens, A549, 96 h)","ratio of (IC50 of K01)/(IC50 of compound), Panc2.13 ([8]; Panc2.13)","ratio of (IC50 of K01)/(IC50 of compound), HL-60 ([10]; HL-60)","ratio of (IC50 of K01)/(IC50 of compound), Namalwa ([11]; Namalwa)","ratio of (IC50 of K01)/(IC50 of compound), Mino ([12]; Mino)",further results
CC1=C[C@H]2[C@@]3(O)[C@H](C)C[C@]4(OC(=O)CCc5ccncc5)[C@H]([C@@H]3C=C(CO)C[C@]2(O)C1=O)C4(C)C [Compound K101-C1315],6.70 to 7.00,< 5.10,7.22 to 7.52,induced phosphorylation,1 to 2 µM,–,–,–,–,–
CC1=C[C@H]2[C@@]3(O)[C@H](C)C[C@]4(OC(=O)CCc5ccccn5)[C@H]([C@@H]3C=C(CO)C[C@]2(O)C1=O)C4(C)C [Compound K101-C1316],6.70 to 7.00,5.10 to 5.22,7.22 to 7.52,induced phosphorylation,0.6 to 1 µM,–,–,–,–,–
CC1=C[C@H]2[C@@]3(O)[C@H](C)C[C@]4(OC(=O)[C@@H](N)Cc5ccccc5)[C@H]([C@@H]3C=C(CO)C[C@]2(O)C1=O)C4(C)C [Compound K101-C1303],–,–,–,induced phosphorylation,–,0.75,0.9,0.19,0.57,"pKi ([1]; read-out: Ki PKCδ): 7.22 to 7.52; pKi ([2]; read-out: Ki PKCα): 6.10 to 6.40; pKi ([6]; C1b domain of human PKCθ, 3H-PDBu competition, read-out: Ki PKCθ): 7.22 to 7.52; pKi ([7]; C1b domain of human PKCε, 3H-PDBu competition, read-out: Ki PKCε): 6.70 to 7.00; pKi ([3]; C1b domain of human PKD1 (PKCμ), 3H-PDBu competition, read-out: Ki PKD1/PKCμ): 7.52 to 9.00; IC50 ([5]; A549, 96 hours incubation, CellTiter Glo): 0.6 to 1 µM; IC50 ([8]; Panc2.13): 1 to 2 µM; IC50 ([9]; KP-4, read-out: IC50 in μM KP-4 (Pancreatic)): 0.6 to 1 µM; IC50 ([10]; HL-60, read-out: IC50 in μM HL-60 (Leukemia)): 0.2 to 0.6 µM; IC50 ([11]; Namalwa): 0.2 to 0.6 µM; IC50 ([12]; Mino): 0.1 to 0.2 µM"
CC/C=C\C/C=C\C/C=C\C/C=C\C/C=C\C/C=C\CCC(=O)O[C@@]12C[C@@H](C)[C@@]3(O)[C@@H](C=C(CO)C[C@]4(O)C(=O)C(C)=C[C@@H]34)[C@@H]1C2(C)C [Compound K101-C1333],> 8.30,–,> 8.30,–,0.001 to 0.01 µM,157,80,20.9,82.5,"Ki PKCα [2]: E (E=>60 nM and ≤10 nM); pKi [6]: > 8.30; pKi [7]: 7.52 to 9.00; IC50 [8]: 0.001 to 0.01 µM; IC50 ([9]; Homo sapiens, KP-4, read-out: IC50 in μM KP-4 (Pancreatic)): 0.001 to 0.01 µM; IC50 ([10]; Homo sapiens, HL-60, read-out: IC50 in μM HL-60 (Leukemia)): 0.001 to 0.01 µM; IC50 [11]: 0.001 to 0.01 µM; IC50 ([12]; Homo sapiens, MINO): < 0.001 µM"

# — patent US20220411362A1, “DITERPENOID COMPOUNDS THAT ACT ON PROTEIN KINASE C (PKC)” (K-Gen, Inc., priority 2019, published 2022)
